Test results: US20070123555A1, “PREVENTION AND TREATMENT OF HEARING DISORDERS” (Cypress Bioscience, Inc., priority 2005, published 2007)
Entries after “also recorded” stand apart in the source; their conditions may differ. Where two headings read alike, the source gives them in different places.

Experiments:
CYP2D6 [1] = target: CYP2D6 (Homo sapiens, UniProt P10635); details: cited from earlier work
CYP2D6 [2] = details: in vivo; cited from earlier work
cochlea = details: local administration; cited from earlier work
[3] = system: permanent threshold shift; details: 6.7 mmol daily, versus placebo (sodium aspartate); rifle noise six days per week for eight weeks; cited from earlier work
cochlear sensory cells = details: perfusion into the cochlea via osmotic minipump; cited from earlier work
[4] = system: noise-induced temporary threshold shift; details: daily ingestion of 122 mg for 10 days; cited from earlier work
[5] = system: outer hair cells of cochlear explants; assay: Cochlear explant cultures challenged with cisplatin, outer hair cell damage; type: cell-based, Sprague-Dawley rats
Source text: Explants of sensory epithelium from the basal turn of postnatal day 5 (p5) Sprague-Dawley rats were isolated using the methods of Van De Water and Sobkowicz (Van d Water T., Ruben R. J. (1974) “Growth of the inner ear in organ culture,” Ann. Otol. Rhinol. Laryngol., 83:1-16; Sobkowicz H. M., Loftus J. M., Slapnick S. M. (1993) “Tissue culture of the organ of Corti.,” Acta. Suppl. 502:3-36). Explants were maintained in Dulbecco's Modified Eagle's medium with 10% fetal bovine serum and 30 U/ml penicillin. HEPES buffer was added to a concentration of 25 mM and the glucose concentration increased to 6 mg/ml to enhance neuronal survival. Each 15 mm dish containing 250 μl of medium was maintained in an incubator at 37° C. with 5% CO2 and 95% humidity.
Toxicity-inducers (gentamicin or cisplatin, 1-100 μM) were exposed to the medium 12-24 h following plating for 48 h. Concentrations of gentamicin or cisplatin were employed that produced approximately 50% loss of outer hair cells, which permitted for assessments of either increases or decreases in outer hair cell damage.
Test compounds were applied to the cultures for 12 h, and then challenged with medium containing gentamicin or cisplatin plus the test compound for an additional 48 h, followed by fixation and evaluation.
At the end of culture, free floating explants were fixed with 4% paraformaldehyde and 1% glutaraldehyde in phosphate-buffered saline. The explants were then permeabilized with 1 % Tween-20 in phosphate-buffered saline. The explants were then stained with conjugated phalloidin-rhodamine probe in phosphate-buffered saline, washed twice, and mounted between two cover slips in a 1:3 mixture of phosphate-buffered saline/glycerol. Explants were imaged by light and fluorescence microscopy and by laser confocal microscopy to assess the degree of damage to the outer hair cells.
The results of one such test, employing cisplatin as an ototoxic agent and nicergoline as a test compound, are shown in FIG. 1. The control cultures contained no cisplatin and no nicergoline. […]

CYP2D6 (Homo sapiens, UniProt P10635), sequence (P10635 whole entry): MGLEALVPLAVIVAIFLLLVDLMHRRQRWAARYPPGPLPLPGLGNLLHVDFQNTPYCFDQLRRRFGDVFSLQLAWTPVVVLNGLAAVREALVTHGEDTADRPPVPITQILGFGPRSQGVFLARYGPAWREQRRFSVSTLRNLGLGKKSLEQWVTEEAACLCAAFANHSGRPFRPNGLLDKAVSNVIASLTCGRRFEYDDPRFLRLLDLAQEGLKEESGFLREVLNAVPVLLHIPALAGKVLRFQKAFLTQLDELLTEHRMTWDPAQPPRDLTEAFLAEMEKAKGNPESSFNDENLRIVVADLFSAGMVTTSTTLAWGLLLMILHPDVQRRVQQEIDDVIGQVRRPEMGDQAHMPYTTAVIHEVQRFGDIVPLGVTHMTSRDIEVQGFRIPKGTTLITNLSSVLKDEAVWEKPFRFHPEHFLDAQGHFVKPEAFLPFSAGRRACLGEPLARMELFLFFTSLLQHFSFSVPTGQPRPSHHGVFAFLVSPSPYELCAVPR

For `CO[C@]12C[C@@H](CO)CN(C)[C@@H]1Cc1cn(C)c3cccc2c13` [MMDL, 1-methyl-10-α-methoxy-9,10-dihydrolysergol], the “level in blood plasma after nicergoline dosing” value (CYP2D6 [1]; in vivo) is listed as “very little MMDL” and the “level in plasma after nicergoline dosing” value (CYP2D6 [2]) is listed as “relatively high concentrations of MMDL”.
For `CCN(CC)CCn1c(=O)c(Cc2ccc(OC)cc2)nc2ccccc21` [caroverine, 1-[2-(diethylamino)ethyl]-3-[(4-methoxyphenyl)methyl]-2-(1H)-quinoxalinone], the “protection of cochlea from noise trauma” value (cochlea) is listed as “protection of cochlea from noise trauma”.
In the case of `N[C@@H](CC(=O)[O-])C(=O)[O-].[Mg+2]` [magnesium aspartate], the “effect on permanent threshold shift” value [3] is listed as “significant effect on permanent threshold shift”.
For `Nc1nc2ccc(OC(F)(F)F)cc2s1` [riluzole, 2-amino-6-trofluoromethoxybenzothiazole], the “effect on cochlear damage after acoustic trauma” value (cochlear sensory cells) is listed as “prevents mitochondrial damage and subsequent translocation of cytochrome c, DNA fragmentation and hair cell degeneration”.
For `CO[C@]12C[C@@H](CO)CN(C)[C@@H]1Cc1c[nH]c3cccc2c13` [MDL, 10-α-methoxy-9,9-dihydrolysergol], the “level in plasma after nicergoline dosing” value (CYP2D6 [2]) is given as “low concentration of MDL”.
For `[Mg]` [magnesium], the “effect on noise-induced temporary threshold shift” value [4] is listed as “protect against noise-induced temporary threshold shift”.
With `CO[C@]12C[C@@H](COC(=O)c3cncc(Br)c3)CN(C)[C@@H]1Cc1cn(C)c3cccc2c13` [nicergoline] the “concentrations at which nicergoline itself is non-toxic to cochlear cultures” value ([5]; 0 μg/ml cisplatin, 10 μM nicergoline, 5 cultures) was “up to 10 μM”, the “protection against toxic effects of cisplatin” value ([5]; 2 μg/ml cisplatin, nicergoline 10 nM, 1 μM or 10 μM, FIG. 1) was “protects cochlear ear explants from chemically-induced damage by cisplatin; also recorded: exerting protection against the toxic effects of cisplatin at all tested concentrations” and the “concentration providing maximum protection from cisplatin-induced cell death” value ([5]; cisplatin 2 μg/ml (sentence prints 2 μM), test compound 12 h, then with cisplatin 48 h, 5 cultures each) was “about 1 μM”. The “level in blood plasma after nicergoline dosing” value (CYP2D6 [1]; individuals having normal CYP2D6 function) was “almost no detectable nicergoline in blood plasma”.
